Measured values taken from patent US8716284B2, “Adamantyl diamide derivatives and uses of same” (H. Lundbeck A/S, priority 2008, dated 2014).

Biological target: T1, rat metabotropic glutamate receptor 5 (mGluR5) (Rattus norvegicus, UniProt P31424)
T1 construct: expressed in transfected cells; host or cells: HEK 293
Test: Calcium mobilization assay (FLIPR) for negative or positive allosteric activity, HEK 293 cells
Format: cell-based
Conditions: HEK293, negative allosteric modulation, inhibition of EC80 glutamate response; read-out: FLIPR maximum inhibition
Outline: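 HEK 293 cells stably expressing rat mGluR5, Fluo-4 loaded in HEPES-buffered HBSS pH 7.4 with 0.1% BSA and probenecid. Compound added with EC20 (potentiation) or EC80 (inhibition) glutamate; fluorescence read over 3 min at room temperature. Basal-subtracted maximum fluorescence change fitted to Hill equation.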

T1 sequence (P31424 21-1171 isoform P31424-2 limits assumed): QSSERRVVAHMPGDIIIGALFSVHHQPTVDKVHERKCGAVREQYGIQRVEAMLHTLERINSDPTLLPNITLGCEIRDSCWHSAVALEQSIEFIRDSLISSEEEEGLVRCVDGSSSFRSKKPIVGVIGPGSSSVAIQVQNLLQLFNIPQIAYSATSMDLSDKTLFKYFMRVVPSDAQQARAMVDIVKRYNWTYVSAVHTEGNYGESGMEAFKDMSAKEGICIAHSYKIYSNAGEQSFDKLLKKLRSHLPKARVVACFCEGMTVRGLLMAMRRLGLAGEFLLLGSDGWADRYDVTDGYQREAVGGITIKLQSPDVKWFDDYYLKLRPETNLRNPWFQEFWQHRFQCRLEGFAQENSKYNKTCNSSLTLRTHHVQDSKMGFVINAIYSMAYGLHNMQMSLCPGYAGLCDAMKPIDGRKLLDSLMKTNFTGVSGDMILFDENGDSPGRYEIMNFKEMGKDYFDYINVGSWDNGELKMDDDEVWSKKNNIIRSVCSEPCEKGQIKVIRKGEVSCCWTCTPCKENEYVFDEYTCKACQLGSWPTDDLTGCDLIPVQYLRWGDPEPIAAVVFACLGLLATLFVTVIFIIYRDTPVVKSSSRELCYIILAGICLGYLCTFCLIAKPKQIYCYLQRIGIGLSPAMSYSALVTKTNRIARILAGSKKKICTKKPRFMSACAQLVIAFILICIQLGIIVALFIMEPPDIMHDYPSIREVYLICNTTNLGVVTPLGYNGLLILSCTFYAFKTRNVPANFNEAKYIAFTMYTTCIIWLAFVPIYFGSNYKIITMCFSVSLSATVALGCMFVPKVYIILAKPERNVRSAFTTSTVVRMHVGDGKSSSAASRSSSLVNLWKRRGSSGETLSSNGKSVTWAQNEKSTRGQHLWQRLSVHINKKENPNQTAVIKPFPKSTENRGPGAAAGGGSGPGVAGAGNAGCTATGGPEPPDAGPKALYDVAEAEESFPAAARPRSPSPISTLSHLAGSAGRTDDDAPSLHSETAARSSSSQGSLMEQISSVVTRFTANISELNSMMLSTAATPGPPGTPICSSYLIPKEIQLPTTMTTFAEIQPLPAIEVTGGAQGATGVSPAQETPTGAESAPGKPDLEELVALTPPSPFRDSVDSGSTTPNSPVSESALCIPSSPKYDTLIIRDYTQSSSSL

| SMILES | Emax |
| --- | --- |
| O=C(NC12CC3CC(C1)CC(NC(=O)c1cccc(N4CCC[C@H]4CO)n1)(C3)C2)c1cccc(F)c1 [Example 249, 6-((S)-2-Hydroxymethyl-pyrrolidin-1-yl)-pyridine-2-carboxylic acid [3-(3-fluoro-benzoylamino)-adamantan-1-yl]-amide] | 63 to 99% |
| Cc1cccc(C(=O)NC23CC4CC(CC(NC(=O)c5cc(C)on5)(C4)C2)C3)n1 [Example 39, 6-Methyl-pyridine-2-carboxylic acid {3-[(5-methyl-isoxazole-3-carbonyl)-amino]-adamantan-1-yl}-amide] | 63 to 99% |
| Cc1cccc(C(=O)NC23CC4CC(C2)CC(NC(=O)c2cccc(NCCCO)n2)(C4)C3)n1 [Example 210, 6-(3-Hydroxy-propylamino)-pyridine-2-carboxylic acid {3-[(6-methyl-pyridine-2-carbonyl)-amino]-adamantan-1-yl}-amide] | 63 to 99% |
| CC(=O)NCCNc1cccc(C(=O)NC23CC4CC(CC(NC(=O)c5cccc(C)n5)(C4)C2)C3)n1 [Example 234, 6-(2-Acetylamino-ethylamino)-pyridine-2-carboxylic acid {3-[(6-methyl-pyridine-2-carbonyl)-amino]-adamantan-1-yl}-amide] | 63 to 99% |
| O=C(NC12CC3CC(C1)CC(NC(=O)c1ccnc(C(F)(F)F)n1)(C3)C2)c1cnccn1 [Example 190, 2-Trifluoromethyl-pyrimidine-4-carboxylic acid {3-[(pyrazine-2-carbonyl)-amino]-adamantan-1-yl}-amide] | 63 to 99% |
| Cc1cccc(C(=O)NC23CC4CC(C2)CC(NC(=O)c2ccno2)(C4)C3)n1 [Example 31, 6-Methyl-pyridine-2-carboxylic acid {3-[(isoxazole-5-carbonyl)-amino]-adamantan-1-yl}-amide] | 63 to 99% |
| Cc1cncc(C(=O)NC23CC4CC(CC(NC(=O)c5ccnc(Br)c5)(C4)C2)C3)n1 [Example 178, 6-Methyl-pyrazine-2-carboxylic acid {3-[(2-bromo-pyridine-4-carbonyl)-amino]-adamantan-1-yl}-amide] | 63 to 99% |
| Cc1ccnc(C(=O)NC23CC4CC(CC(NC(=O)c5ccnc(C)n5)(C4)C2)C3)n1 [Example 193, 2-Methyl-pyrimidine-4-carboxylic acid {3-[(4-methyl-pyrimidine-2-carbonyl)-amino]-adamantan-1-yl}-amide] | 63 to 99% |
| O=C(NC12CC3CC(C1)CC(NC(=O)c1cnccn1)(C3)C2)c1ccnc(Br)c1 [Example 186, Pyrazine-2-carboxylic acid {3-[(2-bromo-pyridine-4-carbonyl)-amino]-adamantan-1-yl}-amide] | 63 to 99% |
| CN1CCN(c2cccc(C(=O)NC34CC5CC(CC(NC(=O)c6cccc(F)c6)(C5)C3)C4)n2)CC1 [Example 216, 6-(4-Methyl-piperazin-1-yl)-pyridine-2-carboxylic acid [3-(3-fluoro-benzoylamino)-adamantan-1-yl]-amide] | 63 to 99% |
| O=C(NC12CC3CC(C1)CC(NC(=O)C1CCCCC1)(C3)C2)c1ccccn1 [Example 84, Pyridine-2-carboxylic acid [3-(cyclohexanecarbonyl-amino)-adamantan-1-yl]-amide] | 63 to 99% |
| CCn1ccc(C(=O)NC23CC4CC(CC(NC(=O)c5cccc(C)n5)(C4)C2)C3)n1 [Example 42, 6-Methyl-pyridine-2-carboxylic acid {3-[(1-ethyl-1H-pyrazole-3-carbonyl)-amino]-adamantan-1-yl}-amide] | 63 to 99% |

Further lines, results first:

| Emax | SMILES |
| --- | --- |
| 90 to 99% | Cn1nc(C(=O)NC23CC4CC(CC(NC(=O)c5ccccn5)(C4)C2)C3)cc1-c1ccco1 [Example 9, Pyridine-2-carboxylic acid {3-[(5-furan-2-yl-1-methyl-1H-pyrazole-3-carbonyl)-amino]-adamantan-1-yl}-amide] |
| 63 to 99% | O=C(NC12CC3CC(C1)CC(NC(=O)c1cccc(N4CCC(O)C4)n1)(C3)C2)c1ccccn1 (stereo not shown) [Example 201, 6-(3-Hydroxy-pyrrolidin-1-yl)-pyridine-2-carboxylic acid {3-[(pyridine-2-carbonyl)-amino]-adamantan-1-yl}-amide] |
| 63 to 99% | Cn1ccc(C(=O)NC23CC4CC(CC(NC(=O)c5ccccn5)(C4)C2)C3)n1 [Example 76, Pyridine-2-carboxylic acid {3-[(1-methyl-1H-pyrazole-3-carbonyl)-amino]-adamantan-1-yl}-amide] |
| 63 to 99% | O=C(NC12CC3CC(C1)CC(NC(=O)c1ccccn1)(C3)C2)c1ccc2nccn2c1 [Example 89, Imidazo[1,2-a]pyridine-6-carboxylic acid {3-[(pyridine-2-carbonyl)-amino]-adamantan-1-yl}-amide] |
| 63 to 99% | CN(CCO)c1cccc(C(=O)NC23CC4CC(CC(NC(=O)c5ccccn5)(C4)C2)C3)n1 [Example 202, 6-[(2-Hydroxy-ethyl)-methyl-amino]-pyridine-2-carboxylic acid {3-[(pyridine-2-carbonyl)-amino]-adamantan-1-yl}-amide] |
| 63 to 99% | Cc1cccc(C(=O)NC23CC4CC(C2)CC(NC(=O)c2cnc5ccccc5n2)(C4)C3)n1 [Example 34, Quinoxaline-2-carboxylic acid {3-[(6-methyl-pyridine-2-carbonyl)-amino]-adamantan-1-yl}-amide] |
| 63 to 99% | Cc1cccc(C(=O)NC23CC4CC(C2)CC(NC(=O)c2cncc(C)n2)(C4)C3)n1 [Example 21, 6-Methyl-pyrazine-2-carboxylic acid {3-[(6-methyl-pyridine-2-carbonyl)-amino]-adamantan-1-yl}-amide] |
| 70 to 99% | Cc1cccc(C(=O)NC23CC4CC(CC(NC(=O)c5ccc6ocnc6c5)(C4)C2)C3)n1 [Example 122, Benzoxazole-5-carboxylic acid {3-[(6-methyl-pyridine-2-carbonyl)-amino]-adamantan-1-yl}-amide] |
| 70 to 99% | Cc1cccc(C(=O)NC23CC4CC(CC(NC(=O)c5cc(O)ccn5)(C4)C2)C3)n1 [Example 132, 6-Methyl-pyridine-2-carboxylic acid {3-[(4-hydroxy-pyridine-2-carbonyl)-amino]-adamantan-1-yl}-amide] |
| 63 to 99% | O=C(NC12CC3CC(C1)CC(NC(=O)c1ccc4[nH]ccc4n1)(C3)C2)c1ccccn1 [Example 66, 1H-Pyrrolo[3,2-b]pyridine-5-carboxylic acid {3-[(pyridine-2-carbonyl)-amino]-adamantan-1-yl}-amide] |
| 63 to 99% | Cc1ccn2cc(C(=O)NC34CC5CC(CC(NC(=O)c6ccccn6)(C5)C3)C4)nc2c1 [Example 91, 7-Methyl-imidazo[1,2-a]pyridine-2-carboxylic acid {3-[(pyridine-2-carbonyl)-amino]-adamantan-1-yl}-amide] |
| 63 to 99% | CN(C)C1CCN(c2cccc(C(=O)NC34CC5CC(CC(NC(=O)c6ccccn6)(C5)C3)C4)n2)C1 (stereo not shown) [Example 199, 6-(3-Dimethylamino-pyrrolidin-1-yl)-pyridine-2-carboxylic acid {3-[(pyridine-2-carbonyl)-amino]-adamantan-1-yl}-amide] |
| 90 to 99% | Cn1nc(C(=O)NC23CC4CC(CC(NC(=O)c5ccccn5)(C4)C2)C3)cc1-c1cccs1 [Example 8, Pyridine-2-carboxylic acid {3-[(1-methyl-5-thiophen-2-yl-1H-pyrazole-3-carbonyl)-amino]-adamantan-1-yl}-amide] |
